What was measured:
[1] = test system: Wistar rats fed a NS or HS diet for 10 days; assay: MAP responses to i.v. capsaicin with or without CAPZ in urethane-anesthetized rats; format: in vivo, rat; conditions: for decrease in MAP: in mmHg
Method: Surgical Preparation Rats were anesthetized with ketamine and xylazine (80 and 4 mg/kg intraperitoneally, respectively) for cannulation or with urethane (1.5 g/kg intraperitoneally) for capsaicin administration. The left jugular vein, carotid and femoral artery were cannulated under anesthesia for injection of drugs or monitoring of mean arterial pressure (MAP) and heart rate (HR).
Each dose of injection was separated by a 30-minute interval. To determine the specificity of capsaicin, CAPZ (3 mg/kg) was administered 10 minutes before capsaicin injection in a separate group.

[2] = test system: renal tissues; assay: Capsaicin-induced CGRP release from renal tissues; design: species or system rat; conditions: Cap-HS and Cap-NS vs Con-NS and Con-HS
Text: N¼5,_P<0.05 versus vehicle, capsazepine plus capsaicin and capsazepine; †P<0.001 versus capsaicin of control rats with a normal sodium diet (Con-NS) and capsaicin of control rats with a high sodium diet (Con-HS). Vehicle; capsaicin; capsazepine and capsaicin; capsazepine.
To examine renal sensory nerve function, renal CGRP release after stimulation of the renal sensory nerves with capsaicin was examined.

[3] = test system: Wistar rats; assay: Neonatal capsaicin treatment plus NS or HS diet: blood pressure, 8-isoprostane, creatinine clearance; format: in vivo, rat
Method: (§1) Enhanced oxidative stress in kidneys of salt-sensitive hypertension: role of sensory nerves (Am J Physiol Heart Circ Physiol 291: H3136-H3143, 2006). To determine the mechanism(s) underlying enhanced oxidative stress in kidneys of salt-sensitive hypertension, neonatal Wistar rats were given vehicle or capsaicin (CAP, 50 mg/kg sc) on the first and second days of life. After being weaned, male rats were assigned into four groups and treated for 2 wk with the following: vehicle+a normal sodium diet (NS, 0.4%, CON-NS), vehicle+a high-sodium diet (HS, 4%, CON-HS), CAP+NS (CAP−NS), and CAP+HS (CAP−HS). […] Plasma and urinary 8-iso-prostaglandin F2alpha levels increased by approximately 40% in CON-HS and CAP−HS rats compared with their respective controls fed a NS diet (P≦0.05), and these parameters were higher in CAP−HS compared with CON-HS rats. Superoxide (O2—) levels in the renal cortex and medulla increased by approximately 45% in CAP−HS compared with CON-HS, CON-NS, and CAP−NS rats (P≦0.05).

[4] = test system: renal cortex and medulla; assay: Neonatal capsaicin treatment plus NS or HS diet: renal superoxide, SOD and NAD(P)H oxidase subunits; design: species or system rat; conditions: for renal cortical Cu/Zn SOD activity / renal cortical Cu/Zn SOD protein expression / renal cortical Mn SOD activity / renal cortical Mn SOD protein expression / renal cortical O2— production / renal cortical gp91 phox protein expression / renal cortical p47phox protein expression / renal medullary Cu/Zn SOD activity / renal medullary Cu/Zn SOD protein expression / renal medullary Mn SOD activity / renal medullary Mn SOD protein expression / renal medullary O2— production / renal medullary p47phox protein expression: neonatal CAP
Method: as §1, with “(P≦0.05). […]” for “(P≦0.05).”

[5] = test system: rats fed either a high or normal sodium diet; conditions: rat, in vivo; cited from earlier work
[6] = test system: rats; conditions: dose-dependent; abolished by TRPV1 blockade or ipsilateral renal denervation; cited from earlier work
[7] = test system: hearts of WT mice; assay: Langendorff perfused heart, ischemia and reperfusion (I/R) with OLDA, wild type; design: species or system mouse; conditions: OLDA 1.5×10^−7M; WT
Method: (§2) The following measurements were made on the two types of heart tissue: left ventricular end-diastolic pressure (LVEDP), left ventricular developed pressure (LVDP), coronary flow (CF), and left ventricular (LV) peak positive rate of pressure change/rate of time change (+dP/dt) were evaluated after I/R.

[8] = test system: hearts of TRPV1−/− mice; assay: Langendorff perfused heart, ischemia and reperfusion (I/R) with OLDA, TRPV1-null; design: species or system mouse
Method: as §2

[9] = test system: WT and TRPV1−/− hearts; assay: OLDA-induced CGRP and SP release from hearts (radioimmunoassay); design: species or system mouse
[10] = biological target: transient receptor potential vanilloid type 1 (TRPV1) channel (Homo sapiens, UniProt Q8NER1); conditions: in vitro; cited from earlier work
[11] = CAP−HS compared with CON-HS, CON-NS, CAP−NS

transient receptor potential vanilloid type 1 (TRPV1) channel, sequence (Q8NER1 whole entry, species assumed): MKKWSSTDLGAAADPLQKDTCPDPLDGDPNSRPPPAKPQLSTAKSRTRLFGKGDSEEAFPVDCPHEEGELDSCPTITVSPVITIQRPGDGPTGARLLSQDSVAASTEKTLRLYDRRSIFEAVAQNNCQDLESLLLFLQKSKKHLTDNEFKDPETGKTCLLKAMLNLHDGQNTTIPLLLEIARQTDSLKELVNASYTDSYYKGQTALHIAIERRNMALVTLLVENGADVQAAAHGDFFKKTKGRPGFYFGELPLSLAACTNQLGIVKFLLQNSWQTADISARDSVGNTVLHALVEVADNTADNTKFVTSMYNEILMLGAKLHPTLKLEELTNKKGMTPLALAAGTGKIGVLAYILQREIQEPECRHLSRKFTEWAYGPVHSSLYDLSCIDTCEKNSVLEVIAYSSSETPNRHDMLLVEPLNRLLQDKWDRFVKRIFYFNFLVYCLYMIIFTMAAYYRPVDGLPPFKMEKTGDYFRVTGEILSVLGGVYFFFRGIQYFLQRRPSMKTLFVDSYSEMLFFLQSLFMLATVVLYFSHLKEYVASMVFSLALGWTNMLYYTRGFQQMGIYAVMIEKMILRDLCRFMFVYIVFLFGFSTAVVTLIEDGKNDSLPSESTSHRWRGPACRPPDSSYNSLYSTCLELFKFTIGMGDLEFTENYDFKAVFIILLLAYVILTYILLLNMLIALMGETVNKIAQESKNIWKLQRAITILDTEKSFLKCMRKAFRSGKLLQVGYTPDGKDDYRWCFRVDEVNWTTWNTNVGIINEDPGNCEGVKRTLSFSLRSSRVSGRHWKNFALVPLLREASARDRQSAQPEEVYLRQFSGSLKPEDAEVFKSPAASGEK

## COc1cc(CNC(=O)CCCC/C=C/C(C)C)ccc1O [capsaicin, (E)-N-(4-hydroxy-3-methoxybenzyl)-8-methylnon-6-enamide]
[1]; CAP 10 μg/kg iv, HS
  decrease in MAP: 11±2
[1]; CAP 10 μg/kg iv, NS
  decrease in MAP: 6±1
[1]; CAP 30 μg/kg iv, HS
  decrease in MAP: 21±3
[1]; CAP 30 μg/kg iv, NS
  decrease in MAP: 12 ±2
[1]; capsaicin 10 μg/kg iv, HS
  decrease in MAP (depressor effect): 11±2 mmHg
[1]; capsaicin 10 μg/kg iv, NS
  decrease in MAP (depressor effect): 6±1 mmHg
[1]; capsaicin 30 μg/kg iv, HS
  decrease in MAP (depressor effect): 21±3 mmHg
[1]; capsaicin 30 μg/kg iv, NS
  decrease in MAP (depressor effect): 12±2 mmHg
[2]
  renal CGRP release in response to 1 mmol/l capsaicin in capsaicin-pretreated vs control rats: significantly lower
[3]; [11]
  decrease in creatinine clearance: 45%
[3]; CAP−HS compared with control fed a NS diet
  increase in plasma and urinary 8-iso-prostaglandin F2alpha levels: approximately 40%
[3]; neonatal CAP, NS diet
  plasma and urine 8-isoprostane levels: did not increase
[4]; [11]
  increase in superoxide levels in renal cortex and medulla: approximately 45%
[4]; HS
  renal cortical Cu/Zn SOD activity: 74.6 9.6 mU/mg protein
  renal cortical Cu/Zn SOD protein expression: 0.39 0.05 %-actin arbitrary units
  renal cortical Mn SOD activity: 14.3 3.5 mU/mg protein
  renal cortical Mn SOD protein expression: 0.10 0.01 %-actin arbitrary units
  renal cortical O2— production: 3.53 0.46 nmol_min—1_mg dry wt—1
  renal cortical gp91 phox protein expression: 0.21 0.03 arbitrary units
  renal cortical p47phox protein expression: 0.07 0.01 arbitrary units
  renal medullary Cu/Zn SOD activity: 101.7 11.6 mU/mg protein
  renal medullary Cu/Zn SOD protein expression: 0.41 0.05 %-actin arbitrary units
  renal medullary Mn SOD activity: 27.1 4.2 mU/mg protein
  renal medullary Mn SOD protein expression: 0.13 0.02 %-actin arbitrary units
  renal medullary O2— production: 2.32 0.29 nmol_min—1_mg dry wt—1
  renal medullary p47phox protein expression: 0.1 0.01 arbitrary units
[4]; NS
  renal cortical Cu/Zn SOD activity: 54.8 7.6 mU/mg protein
  renal cortical Cu/Zn SOD protein expression: 0.29 0.05 %-actin arbitrary units
  renal cortical Mn SOD activity: 10.4 2.5 mU/mg protein
  renal cortical Mn SOD protein expression: 0.07 0.01 %-actin arbitrary units
  renal cortical O2— production: 2.35 0.55 nmol_min—1_mg dry wt—1
  renal cortical gp91 phox protein expression: 0.17 0.03 arbitrary units
  renal cortical p47phox protein expression: 0.05 0.01 arbitrary units
  renal medullary Cu/Zn SOD activity: 67.0 7.6 mU/mg protein
  renal medullary Cu/Zn SOD protein expression: 0.27 0.05 %-actin arbitrary units
  renal medullary Mn SOD activity: 18.7 3.8 mU/mg protein
  renal medullary Mn SOD protein expression: 0.09 0.02 %-actin arbitrary units
  renal medullary O2— production: 1.43 0.40 nmol_min—1_mg dry wt—1
  renal medullary p47phox protein expression: 0.07 0.01 arbitrary units
[5]
  MAP: decrease in MAP
  plasma CGRP levels: increase in plasma CGRP levels
[6]
  Uflow and UNa: Increases

## CCCCCCCC/C=C\CCCCCCCC(=O)NCCc1ccc(O)c(O)c1 [OLDA, N-oleoyl-dopamine]
[7]
  LV peak positive dP/dt (+dP/dt) after I/R: 3227±126 mmHg/s
  coronary flow (CF) after I/R: 76±6%
  left ventricular developed pressure (LVDP) after I/R: 61.3±3.8 mmHg
  left ventricular end-diastolic pressure (LVEDP) after I/R: 10.1±0.6 mmHg
[8]
  protective effect in TRPV1−/− hearts: void
[8]; OLDA 1.5×10^−7M, TRPV1−/−
  LV peak positive dP/dt (+dP/dt) after I/R: 1967±299 mmHg/s
  coronary flow (CF) after I/R: 53±2%
  left ventricular developed pressure (LVDP) after I/R: 39.8±3.7 mmHg
  left ventricular end-diastolic pressure (LVEDP) after I/R: 29.9±3.5 mmHg
[9]
  CGRP and SP release in WT compared to TRPV1−/− hearts: significantly higher
[10]
  potency relative to capsaicin: at least 30 times
